# In US7090780B2, “Bactericide for use in water treatment, method for water treatment and apparatus for water treatment” (Toray Industries, Inc., priority 2001, dated 2006):
# Conditions: 50 ppm of sulfuric acid added to pressure-sterilized physiological salt solution (salt concentration 0.9 wt %)
compound,measurement,value
O=S(=O)(O)O [sulfuric acid],pH of the liquid,3.2
